Counter-ions that a name gives are not always drawn.
Assays:
[1] = molecular target: T1, rat serotonin 1A receptors (Rattus norvegicus, UniProt P19327); test: Adenylate cyclase inhibition test via rat serotonin 1A receptors (full agonist-partial agonist judgment test), rat hippocampus membranes; type: biochemical
T1 construct: Each rat was decapitated and the hippocampus was quickly removed; from tissue; host or cells: hippocampus of male Wistar rats
T1 sequence (P19327 1-422): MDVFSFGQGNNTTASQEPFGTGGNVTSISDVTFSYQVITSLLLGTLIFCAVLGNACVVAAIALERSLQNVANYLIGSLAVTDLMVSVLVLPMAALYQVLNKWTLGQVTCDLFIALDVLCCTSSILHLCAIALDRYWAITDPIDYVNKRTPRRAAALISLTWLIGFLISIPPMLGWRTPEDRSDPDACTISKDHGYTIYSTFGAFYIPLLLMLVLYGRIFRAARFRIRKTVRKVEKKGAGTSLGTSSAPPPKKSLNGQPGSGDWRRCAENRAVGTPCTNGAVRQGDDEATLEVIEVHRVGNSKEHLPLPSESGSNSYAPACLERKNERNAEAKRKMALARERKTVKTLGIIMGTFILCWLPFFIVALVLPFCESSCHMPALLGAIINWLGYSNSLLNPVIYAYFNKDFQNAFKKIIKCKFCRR
Method: For the test, Wistar male rats supplied by Shimizu Laboratory Supplies were used (9 to 15 weeks old). Each rat was decapitated and the hippocampus was quickly removed. It was homogenized in 10 volumes of buffer (i.e., 25 mM Tris-HCl, 1 mM EGTA, 5 mM EDTA, 5 mM DTT, 300 mM sucrose, 100 KIU/ml aprotinin, pH 7.4). This was then centrifuged at 500×g, 4° C. for 5 minutes, the supernatant was further centrifuged at 39,000×g, 4° C. for 10 minutes, and the residue was used as the rat hippocampus membrane specimen. The rat hippocampus membrane specimen was diluted by a buffer to 20 to 90 μg/mL of protein, then 50 μL of this cell membrane suspension was added to a 200 μL assay buffer containing each test sample (25 mM Tris-HCl, 100 mM NaCl, 2 mM MgCl2. 0.25 mM ATP, 5 mM phosphocreatine, 10 μg/mL creatine phosphokinase, 0.2 mM IBMX, 10 μM GTP, 10 μM forskolin, pH 7.4) and allowed to react at 30° C. for 5 minutes. 0.2N HCl was added in 250 μL to stop the reaction, then the cAMP produced was assayed by the radioimmunoassay method. […] Note that the adenylate cyclase activity was measured using as an indicator the amount of cAMP produced by the same enzyme. The rate of inhibition by the serotonin 1A receptor agonist was found using the amount of production due to forskolin (10 μM) stimulus as 100%.

[2] = system: Parkinson's disease model rats; test: Inhibition of induction of hyperkinesia of the forelimbs; type: in vivo, rat
Method: By repeated doses of levodopa to Parkinson's disease model rats, hyperkinesia of the forelimbs (abnormal action similar to dyskinesia in clinical studies) was observed (see FIG. 3). Therefore, it was studied whether it is possible to inhibit the induction of hyperkinesia of the forelimbs by repeated dosage of the tested substance from the start along with the start of repeated doses of levodopa.
The tested substance was intraperitoneally administered about 20 minutes before levodopa administration.

rats = test: Forced swimming method (anti-depressive action); type: in vivo, rat
Source text: For the test, Crl: CD(SD) male rats supplied by Charles River Japan were used (6 weeks old at start of test). For the forced swimming test, the method of the improved type reported by Lucki et al. (Lucki I., “The forced swimming test as a model for core and component behavioral effects of antidepressant drugs”, Behavioural Pharmacology, 1997, 8, p. 523-532; Cryan J. F. et al., “Assessing antidepressant activity in rodents: recent developments and future needs”, TRENDS in Pharmacological Sciences, 2002, 23, p. 238-245) was used. On day 1, each rat was placed in a cylinder filled with water (height 45 cm×diameter 30 cm, water depth 30 cm, water temperature 23° C., water depth set to depth by which back legs and tail of rat will not touch the bottom). The rat was taken out after 15 minutes. At this time, the immobility period (seconds) of minutes 10-15 (5 minutes) was recorded. Based on the results, the rats were assigned to five groups so that there would be no difference among the groups. On day 2, each rat was placed in a cylinder filled with water the same as day 1 and the immobility period (seconds), swimming behavior period (seconds), and climbing behavior period (seconds) of minutes 0-5 (5 minutes) were measured. Note that the immobility period was defined as the minimum extent of movement for the rat to hold its head above the water, the swimming behavior as the swimming behavior circling around the inside of the cylinder in the horizontal direction, and the climbing behavior as the climbing behavior moving the forelimbs in the vertical direction along the cylinder walls to try to climb them. The tested substance was intraperitoneally administered 15 minutes after the end of swimming on day 1, and 4 hours and 30 minutes before swimming on day 2. Further, for the amount of locomotor activity, a measuring system (shape 48.8×48.8×30 cm, vertical 8 fractions, horizontal 8 fractions, for total of 64 fractions, Biomedica) set in a blacked out soundproof box was used to record the amount of locomotor activity of the rats at minutes 0-15 (15 minutes). Note that the dosages and timings of administration of the tested substances were set in the same way as the forced swimming test and the substance were intraperitoneally administered 24 hours, 4 hours, and 30 minutes before measurement of the amount of locomotor activity.

[3] = Solubility (choice of solvent); type: physicochemical; conditions: physiological saline
Method: Note that the SUN […] was subcutaneously administered right before levodopa administration, the sarizotan was orally administered about 20 minutes before levodopa dosage in accordance with above-mentioned known reports (Bibbiani F. et al., Neurology, 2001, 57, p. 1829-1834), and the Example Compound 4 of Japanese Patent Publication No. 2005-298402A was subcutaneously administered about 30 minutes before levodopa dosage in accordance with the above-mentioned Japanese Patent Publication No. 2005-298402A. Further, for the solvent, for SUN […] and Example Compound 4 of Japanese Patent Publication No. 2005-298402A, physiological saline was used.

solubility (in words) [3]	SMILES	IC50 ([1]; forskolin (10 μM) stimulated, rat hippocampus membranes, read-out: IC50 of adenylate cyclase inhibition (for the maximum reaction)) [nM]	inhibition ([1]; forskolin (10 μM) stimulus = 100%, rat hippocampus membranes, read-out: maximum inhibitory reaction of adenylate cyclase activity) [%]	full agonist-partial agonist judgment ([1]; serotonin 1A receptors of the serotonin nerve post-synapse membrane)	hyperkinesia of the forelimbs compared with the results after the 3 week withdrawal period ([2]; 3 mg/kg i.p. for 3 weeks)	appearance of hyperkinesia of the forelimbs ([2]; 3 mg/kg i.p. for 3 weeks together with the start of repeated doses of levodopa)	immobility period (rats; 0.3, 1 and 3 mg/kg i.p., minutes 0-5 on day 2)	swimming behavior period (rats; 1, 3 mg/kg i.p.)
–	O=C1c2ccccc2OC=C(Cl)N1CCCCN1CC=C(c2ccccn2)CC1 [SUN N4057, 3-chloro-4,5-dihydro-4-{4-[4-(2-pyridyl)-1,2,3,6-tetrahydropyridin-1-yl]butyl}-1,4-benzoxazepin-5-one.dihydrochloride-dihydrate]	2.67	20	partial agonist	significant inhibitory effect	reduced	significant shortening of the immobility period	significant increase
poor in solubility	Cl.Cl.Fc1ccc(-c2cncc(CNC[C@H]3CCc4ccccc4O3)c2)cc1 [Sarizotan, 1-[(2R)-3,4-dihydro-2H-chromen-2-yl]-N-{[5-(4-fluorophenyl)pyridin-3-yl]methyl}methanamine dihydrochloride]	–	–	–	–	–	–	–

Source: patent US20100204202A1, “DRUG FOR ALLEVIATING MOTOR COMPLICATIONS OR PSYCHIATRIC SYMPTOMS OF PARKINSON'S DISEASE” (Asubio Pharma Co., Ltd., priority 2007, published 2010)
